# According to US11453689B2, “3-pyrrolidine-indole derivatives as serotonergic psychedelic agents for the treatment of CNS disorders” (Mindset Pharma Inc., priority 2020, dated 2022):
# Where two headings read alike, the source gives them in different places.
# How the values were obtained:
# [1] = molecular target: human 5-HT2A (h5-HT2A) receptor (Homo sapiens (Human), UniProt P28223); assay: FLIPR calcium assay, human 5-HT2A receptor, agonist mode; assay type: cell-based
# Procedure: I. Assessment of the Activated Effect of Exemplary Compounds of Formula I Targeting on Human 5-HT2A (h5-HT2A) Receptor Under Agonist Mode:
# 1. Culture the cells in cell culture medium (DMEM containing 10% FBS, 1× penicillin-streptomycin 300 μg/ml G418 and 100 μg/ml hygromycin B) at 37° C., 5% (v/v) CO2.
# 2. One day before the assays, detach the cell using TrypLE™ Express and count cells using cell counter.
# 3. Seed 20000 cells/well in 30 μl/well culture medium to a 384-well cell plate and incubate the cells overnight at 37° C., 5% (v/v) CO2.
# 4. On the assay day, prepare 2×dye solution following the manual of the FLIPR® Calcium 6 Assay Kit: i. Dilute the dye with assay buffer(20 mM HEPES in 1× HBSS, PH7.4); ii. Add probenecid to the final concentration of 5 mM; iii. Vortex vigorously for 1-2 minutes.
# 5. Medium from cell plate by flicking the cell plate on towel papers.
# 6. Add 10 μl of assay buffer and 10 μl of 2×dye solution to each well of the cell plate.
# 7. Put the cell plate on plate shaker, agitate the plate at 600 rpm for 2 minutes. Incubate the plate at 37° C. for 2 hours followed by additional 15-minute incubation at 25° C.
# 8. Prepare 3×compound in assay buffer: a. Dilute reference compounds to required concentration with DMSO. Add the compounds to a 384-well compound plate; b. Perform serial dilutions; c. Add 10 mM test compounds to the compound plate, perform 3-fold serial dilutions. d. […] Add 20 μl/well assay buffer to the compound plate; f. Mix the plate on plate shaker for 2 mins;
# i. The normalized fluorescence reading (RFU) is calculated as shown follow, while Fmax and Fmin stand for maximum and minimum of calcium signal during defined time window: RFU=Fmax−Fmin
# ii. Calculate the percentage activation by using following equation: […]
# iii. Calculate EC50 by fitting % activation against log of compound concentrations with Hill equation using XLfit.
# [2] = molecular target: human 5-HT2A receptor (Homo sapiens (Human), UniProt P28223); assay: Radioligand ([3H]-ketanserin) binding assay on human 5-HT2A receptor
# Procedure: i. Prepare the assay buffer following the table below;
# ii. Preparation of 8 doses of reference and exemplary test compounds starting from 10 mM stock solution as requested by 5-fold serial dilutions with 100%;
# iii. […] a. Add 50 μl/well of 0.5% (v/v) PEI to UniFilter-96 GF/B plates. Seal the plates and incubate at 4° C. for 3 hrs; b. After incubation, wash the plates 3 times with ice-cold wash buffer (50 mM Tris, pH7.4);
# iv. Preparation of assay plates: a. Dilute cell membrane with assay buffer and add 330 μl/well to 96 round deep well plates to reach a concentration of 20 μg/well; b. Prepare 8 concentrations of reference or exemplary test compounds and add 110 μl/well to 96 round deep well plates; c. Dilute [3H]-ketanserin with assay buffer to 5 nM (5× final concentration) and add 110 μl/well to 96 round deep well plates.
# v. Centrifuge the plate at 1000 rpm for 30 secs and then agitate at 600 rpm, R.T. for 5 min.
# vi. Seal the plates and incubate the plate at 27° C. for 90 min.
# vii. Stop the incubation by vacuum filtration onto GF/B filter plates followed by 4 times washing with ice-cold wash buffer (50 mM Tris, pH7.4).
# ix. Seal the filter plates and add 40 μl/well of scintillation cocktail.
# x. Read the plate by using a Microbeta2 microplate counter.
# For reference and exemplary test compounds, the results are expressed as % Inhibition, using the normalization equation: N=100−100×(U−C2)/(C1−C2), where U is the unknown value, C1 is the average of high controls, and C2 is the average of low controls. The IC50 is determined by fitting percentage of inhibition as a function of compound concentrations with Hill equation using XLfit.
# [3] = Human liver microsomes stability with NADPH; settings: for Remaining Percentage (%) after 60 min, Human: human liver microsomes, with NADPH, 2 μM; for half-life at 2 μM / microsomal CLint at 2 μM: human, microsomes
# Procedure: (§1) The objective of this study was to estimate in vitro metabolic stability of exemplary compounds in pooled human, male rat and male mouse liver microsomes. The concentrations of exemplary compounds in reaction systems were evaluated by LC-MS/MS for estimating the stability in pooled human, male rat and male mouse liver microsomes. The in vitro intrinsic clearances of test compounds were determined as well.
# (§2) A master solution in the “Incubation Plate” containing phosphate buffer, ultra-pure H2O, MgCl2 solution and liver microsomes was made according to Table 3. The mixture was pre-warmed at 37° C. water bath for 5 minutes.
# (§3) 40 μL of 10 mM NADPH solution was added to each well. The final concentration of NADPH was 1 mM. The negative control samples were prepared by replacing NADPH with 40 μL of ultra-pure H2O. Samples were prepared in duplicate. Negative controls were prepared in singlet.
# (§4) The reaction was started with the addition of 4 μL of 200 μM exemplary test compounds or control compounds to each master solution to get the final concentration of 2 μM. This study was performed in duplicate.
# (§5) Aliquots of 50 μL were taken from the reaction solution at 0, 15, 30, 45 and 60 minutes. The reaction solutions were stopped by the addition of 4 volumes of cold methanol with IS (100 nM alprazolam, 200 nM imipramine, 200 nM labetalol and 2 μM ketoprofen). Samples were centrifuged at 3,220 g for 40 minutes. Aliquot of 90 μL of the supernatant was mixed with 90 μL of ultra-pure H2O and then was used for LC-MS/MS analysis.
# (§6) LC/MS analysis was performed for all samples from this study using a Shimadzu liquid chromatograph separation system equipped with degasser DGU-20A5R; solvent delivery unit LC-30AD; system controller SIL-30AC; column oven CTO-30A; CTC Analytics HTC PAL System. Mass spectrometric analysis was performed using an Triple Quad™ 5500 instrument.
# (§7) All calculations were carried out using Microsoft Excel. Peak areas were determined from extracted ion chromatograms. The slope value, k, was determined by linear regression of the natural logarithm of the remaining percentage of the parent drug vs. incubation time curve.
# (§8) Conversion of the in vitro t1/2 (min) into the in vitro intrinsic clearance (in vitro CLint, in μL/min/mg proteins) was done using the following equation (mean of duplicate determinations): […]
# [4] = Rat liver microsomes stability with NADPH; settings: for half-life at 2 μM / microsomal CLint at 2 μM: male, rat, microsomes; for Remaining Percentage (%) after 60 min, Rat: rat liver microsomes, with NADPH, 2 μM
# Procedure: as §1, §2, §3, §4, §5, §6, §7, §8
# [5] = Mouse liver microsomes stability with NADPH; settings: for half-life at 2 μM / microsomal CLint at 2 μM: male, mouse, microsomes; for Remaining Percentage (%) after 60 min, Mouse: mouse liver microsomes, with NADPH, 2 μM
# Procedure: as §1, §2, §3, §4, §5, §6, §7, §8
structure (smiles),measurement,setting,value
"Oc1cccc2[nH]cc(C[C@H]3CCCN3)c12 [Compound I-3, (R)-3-(pyrrolidin-2-ylmethyl)-1H-indol-4-ol]",EC50,[1],< 1000 nM
"[2H]C([2H])(c1c[nH]c2cccc(F)c12)[C@H]1CCCN1C([2H])([2H])[2H] [Compound I-37, (R)-4-fluoro-3-((1-(methyl-d3)pyrrolidin-2-yl)methyl-d2)-1H-indole]",EC50,[1],< 1000 nM
same,IC50,[2],500 to 5000 nM
same,"Remaining Percentage (%) after 60 min, Human",[3],31.93%
same,half-life at 2 μM,[3],36.4 min
same,microsomal CLint at 2 μM,[3],38.1 µL/min/mg
same,half-life at 2 μM,[4],29.8 min
same,microsomal CLint at 2 μM,[4],46.5 µL/min/mg
same,"Remaining Percentage (%) after 60 min, Rat",[4],24.82%
same,half-life at 2 μM,[5],53.7 min
same,microsomal CLint at 2 μM,[5],25.8 µL/min/mg
same,"Remaining Percentage (%) after 60 min, Mouse",[5],46.10%
"[2H]C([2H])(c1c[nH]c2cccc(Cl)c12)[C@H]1CCCN1C([2H])([2H])[2H] [Compound I-38, (R)-4-chloro-3-((1-(methyl-d3)pyrrolidin-2-yl)methyl-d2)-1H-indole]",EC50,[1],> 10000 nM
same,IC50,[2],< 500 nM
"[2H]C([2H])([2H])N1CCC[C@@H]1Cc1c[nH]c2cccc(F)c12 [Compound I-40, (R)-4-fluoro-3-((1-(methyl-d3)pyrrolidin-2-yl)methyl)-1H-indole]",EC50,[1],< 1000 nM
same,IC50,[2],< 500 nM
same,"Remaining Percentage (%) after 60 min, Human",[3],35.69%
same,half-life at 2 μM,[3],40.4 min
same,microsomal CLint at 2 μM,[3],34.5 µL/min/mg
same,half-life at 2 μM,[4],54.3 min
same,microsomal CLint at 2 μM,[4],25.5 µL/min/mg
same,"Remaining Percentage (%) after 60 min, Rat",[4],46.51%
same,half-life at 2 μM,[5],63 min
same,microsomal CLint at 2 μM,[5],22 µL/min/mg
same,"Remaining Percentage (%) after 60 min, Mouse",[5],51.70%
"[2H]C([2H])(c1c[nH]c2cccc(F)c12)[C@H]1CCCN1 [Compound I-41, (R)-4-fluoro-3-(pyrrolidin-2-ylmethyl-d2)-1H-indole]",EC50,[1],1000 to 10000 nM
same,IC50,[2],500 to 5000 nM
"[2H]C([2H])(c1c[nH]c2cccc(F)c12)[C@@H]1CCCN1C([2H])([2H])[2H] [Compound I-42, (S)-4-fluoro-3-((1-(methyl-d3)pyrrolidin-2-yl)methyl-d2)-1H-indole]",EC50,[1],> 10000 nM
same,IC50,[2],> 5000 nM
"[2H]C([2H])(c1c[nH]c2cccc(OCc3ccccc3)c12)[C@H]1CCCN1C([2H])([2H])[2H] [Compound I-43, (R)-4-(benzyloxy)-3-((1-(methyl-d3)pyrrolidin-2-yl)methyl-d2)-1H-indole]",EC50,[1],> 10000 nM
"[2H]C([2H])([2H])N1CCC[C@@H]1Cc1c[nH]c2cccc(OCc3ccccc3)c12 [Compound I-45, (R)-4-(benzyloxy)-3-((1-(methyl-d3)pyrrolidin-2-yl)methyl)-1H-indole]",EC50,[1],> 10000 nM
"CN1CCC[C@@H]1Cc1c[nH]c2cccc(OCc3ccccc3)c12 [Compound I-46, (R)-4-(benzyloxy)-3-((1-methylpyrrolidin-2-yl)methyl)-1H-indole]",EC50,[1],> 10000 nM
"CN1CCC[C@@H]1Cc1c[nH]c2cccc(O)c12 [Compound I-47, (R)-3-((1-methylpyrrolidin-2-yl)methyl)-1H-indol-4-ol]",EC50,[1],< 1000 nM
"[2H]C([2H])([2H])N1CCC[C@@H]1Cc1c[nH]c2cccc(OC(=O)CCCCCCC/C=C\C/C=C\CCCCC)c12 [Compound I-48, 3-(((R)-1-(methyl-d3)pyrrolidin-2-yl)methyl)-1H-indol-4-yl (9Z,12Z)-octadeca-9,12-dienoate]",EC50,"[1]; read-out: h5-HT2A EC50, FLIPR, agonist mode",1000 to 10000 nM
same,IC50,"[2]; read-out: h5-HT2A IC50, [3H]-ketanserin competition binding",< 500 nM
same,"Remaining Percentage (%) after 60 min, Human",[3],34.38%
same,half-life at 2 μM,[3],73.4 min
same,microsomal CLint at 2 μM,[3],18.9 µL/min/mg
same,half-life at 2 μM,[4],38.9 min
same,microsomal CLint at 2 μM,[4],35.6 µL/min/mg
same,"Remaining Percentage (%) after 60 min, Rat",[4],41.86%
same,half-life at 2 μM,[5],17.3 min
same,microsomal CLint at 2 μM,[5],80 µL/min/mg
same,"Remaining Percentage (%) after 60 min, Mouse",[5],9.06%
"[2H]C([2H])(c1c[nH]c2cccc(O)c12)[C@@H]1CCCN1 [Compound I-51, (S)-3-(pyrrolidin-2-ylmethyl-d2)-1H-indol-4-ol]",EC50,[1],< 1000 nM
"[2H]C([2H])([2H])N1CCC[C@H]1Cc1c[nH]c2cccc(OCc3ccccc3)c12 [Compound I-52, (S)-4-(benzyloxy)-3-((1-(methyl-d3)pyrrolidin-2-yl)methyl)-1H-indole]",EC50,[1],> 10000 nM
"[2H]C([2H])([2H])N1CCC[C@H]1Cc1c[nH]c2cccc(O)c12 [Compound I-53, (S)-3-((1-(methyl-d3)pyrrolidin-2-yl)methyl)-1H-indol-4-ol]",EC50,[1],1000 to 10000 nM
same,IC50,[2],> 5000 nM
"[2H]C([2H])(c1c[nH]c2cccc(OP(=O)(O)O)c12)[C@H]1CCCN1C([2H])([2H])[2H] [Compound I-54, (R)-3-((1-(methyl-d3)pyrrolidin-2-yl)methyl-d2)-1H-indol-4-yl dihydrogen phosphate]",EC50,[1],1000 to 10000 nM
"CN(C)CCc1c[nH]c2cccc(O)c12 [Psilocin, 4-hydroxy-N,N-dimethyltryptamine, reference compound]","Remaining Percentage (%) after 60 min, Human",[3],70.16%
same,"Remaining Percentage (%) after 60 min, Rat",[4],62.68%
same,"Remaining Percentage (%) after 60 min, Mouse",[5],96.89%
